Experiments:
PSMA [1] = biological target: T1, PSMA (Homo sapiens, UniProt Q04609); assay: Tumor, kidney and salivary gland uptake of 68Ga-PSMA-617 in a prostate cancer patient with and without Tris-POC-2-PMPA pre-dosing (PET); format: in vivo; set-up: from tissue; host or cells: kidneys, salivary and lacrimal glands, and tumour lesions/metastases of living human subjects (PET / gamma imaging); conditions: PET 1 hour after administration, no Tris-POC-2-PMPA
Protocol: One patient was PET imaged 1 h after injection of ^68Ga-PSMA-617 and quantified per SUVmax for tracer uptake in tumor, kidneys and salivary glands. On a subsequent day, the same patient was imaged using the same protocol but with pretreatment of 10 mg (0.1 mg/kgBW) Tris-POC-2-PMPA solution (in 2.5 mL of 30% ethanol) 15 min before application of the PET-tracer.

[2] = cited from earlier work
PSMA [3] = biological target: T1, PSMA; set-up: from tissue; host or cells: kidneys, salivary and lacrimal glands, and tumour lesions/metastases of living human subjects (PET / gamma imaging); conditions: without Tris-POC-2-PMPA; same center (Kratochwil et al., 2016); cited from earlier work
[4] = other mCRPC patients, literature

T1 sequence (Q04609 whole entry): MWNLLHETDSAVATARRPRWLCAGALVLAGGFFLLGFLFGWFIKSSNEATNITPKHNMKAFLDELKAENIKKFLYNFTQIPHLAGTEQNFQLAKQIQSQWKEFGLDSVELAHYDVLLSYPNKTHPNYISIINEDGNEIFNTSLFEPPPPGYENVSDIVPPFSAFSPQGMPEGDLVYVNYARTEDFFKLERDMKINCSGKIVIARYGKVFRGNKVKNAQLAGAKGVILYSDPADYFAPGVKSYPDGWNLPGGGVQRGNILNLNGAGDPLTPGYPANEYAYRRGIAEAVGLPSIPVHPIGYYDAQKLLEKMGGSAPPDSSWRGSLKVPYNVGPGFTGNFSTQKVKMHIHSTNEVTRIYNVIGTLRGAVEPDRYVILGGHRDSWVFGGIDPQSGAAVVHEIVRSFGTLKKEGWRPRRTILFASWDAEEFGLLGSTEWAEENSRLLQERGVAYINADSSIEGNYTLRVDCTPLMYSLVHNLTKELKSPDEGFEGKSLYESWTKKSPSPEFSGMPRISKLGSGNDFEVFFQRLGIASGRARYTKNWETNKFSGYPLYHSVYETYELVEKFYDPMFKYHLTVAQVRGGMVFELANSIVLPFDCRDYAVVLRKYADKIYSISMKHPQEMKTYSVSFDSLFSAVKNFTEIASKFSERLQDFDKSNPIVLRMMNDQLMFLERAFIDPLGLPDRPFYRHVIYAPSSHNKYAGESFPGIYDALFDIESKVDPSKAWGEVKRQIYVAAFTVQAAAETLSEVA

| uptake in kidneys without pre-treatment (PSMA [1]) [SUVmax] | uptake in metastases without pre-treatment (PSMA [1]) | uptake in parotid gland without pre-treatment (PSMA [1]) [SUVmax] | uptake in submandibular gland without pre-treatment (PSMA [1]) [SUVmax] | SMILES | mean effective dose to the lacrimal glands ([2]; Hohberg et al., 2016) [Gy/GBq] | absorbed dose to the kidneys, reported range [2, 4] | absorbed dose to the red marrow, reported range [2, 4] | absorbed dose to the salivary glands, reported range [2, 4] | mean absorbed dose to the kidneys, historical controls (PSMA [3]) [Gy/GBq] | mean absorbed dose to the red marrow, historical controls (PSMA [3]) [Gy/GBq] | mean absorbed dose to the salivary glands, historical controls (PSMA [3]) [Gy/GBq] |
| --- | --- | --- | --- | --- | --- | --- | --- | --- | --- | --- | --- |
| 35.4 | 3.6-12.5 SUVmax | 18.2 | 23.1 | O=C([O-])CN1CCN(CC(=O)[O-])CCN(CC(=O)NC[C@H]2CC[C@H](C(=O)N[C@@H](Cc3ccc4ccccc4c3)C(=O)NCCCC[C@H](NC(=O)N[C@@H](CCC(=O)O)C(=O)O)C(=O)O)CC2)CCN(CC(=O)[O-])CC1.[68Ga+3] [^68Ga-PSMA-617, reference compound] |  |  |  |  |  |  |  |
|  |  |  |  | O=C([O-])CN1CCN(CC(=O)[O-])CCN(CC(=O)NCC2CCC(C(=O)N[C@@H](Cc3ccc4ccccc4c3)C(=O)NCCCC[C@H](NC(=O)N[C@@H](CCC(=O)O)C(=O)O)C(=O)O)CC2)CCN(CC(=O)[O-])CC1.[177Lu+3] (some centres unmarked) [^177Lu-PSMA-617] | 2.82 | 0.53-0.99 Gy/GBq | 0.01-0.05 Gy/GBq | 0.72-1.90 Gy/GBq | 0.78 | 0.03 | 1.44 |
